These results are taken from the supplement of paper PMC11208160.
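Also: IS621 recombinase and bridge RNA in Escherichia coli cells.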

A short description of the data set: recombinant barcode read abundance after kanamycin selection (control-corrected) (log10(CPM+1)); higher = more efficient recombination; sequences stand for … in AGTGCAGAGAAAATCGGCCAGTTTTCTCTGCCTGCAGTCCGCATGCCGT…AGATTTATGCAGCGGACTGCCTTTCTCCCAAAGTGATAAACCGGACAGTATCATGGACCGGTTTTCCCGGTAATCCGTATTTGCAAGGTTGGTTTCACT; site = the 11-nt target. In short, it runs like this:
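This pooled E. coli screen matched targets with IS621 bridge RNA target-binding loops. Plating was done in duplicate on chloramphenicol/ampicillin LB agar as a control and on chloramphenicol/ampicillin/kanamycin plus 0.1 mM IPTG. Recombination efficiency reflects barcode counts at recombinant junctions as counts per million, averaged and control-corrected. The figures are log10(CPM+1).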
Consider “TAGGGGACTTGGGTTCTAACCTGTTGCAA (site TAGGGGACTTT)”, for which the “recombinant barcode read abundance (log10)” value is 2.27.
For the sequence “TAGGTATCTTGGGTTCTAACCTGTTGCAG (site CCTTGTGCTAC)”, the “recombinant barcode read abundance (log10)” value was determined as 0.156.
For “TAGGTATCTTGGGTTCTAACCTGTTGCAG (site TAGGTATCTCT)”, the “recombinant barcode read abundance (log10)” value was 2.01.
For the sequence “TAGGTCCCTTGGGTTCTAACCTGTTGCAT (site TAGGTACCTAT)”, the “recombinant barcode read abundance (log10)” value turned out to be 0.389.
For the sequence “TAGGTCCCTTGGGTTCTAACCTGTTGCAT (site TAGGTCCCTAT)”, the “recombinant barcode read abundance (log10)” value was 1.85.
Consider “TAGGTCCCTTGGGTTCTAACCTGTTGCAT (site TAGGTGCCTAT)”, for which the “recombinant barcode read abundance (log10)” value was 0.0967.
The figure for “TAGGTCCCTTGGGTTCTAACCTGTTGCAT (site TAGGTTCCTAT)” is 0.228.
With “TAGGTCCCTTGGGTTCTAACCTGTTGCGA (site AAGGTCCCTCC)”, the “recombinant barcode read abundance (log10)” value stood at 0.0896.
For “TAGGTCCCTTGGGTTCTAACCTGTTGCGA (site TAGGTCCCTTC)”, the “recombinant barcode read abundance (log10)” value worked out at 3.11.
As for “TAGTAAGCTTGGGTTCTAACCTGTTGCCT (site TAGTAAGCTAG)”, the “recombinant barcode read abundance (log10)” value came out at 1.23.
Turning to “TAGTAAGCTTGGGTTCTAACCTGTTGCCT (site TAGTATCCTAG)”, the “recombinant barcode read abundance (log10)” value was 0.088.
The figure for “TAGTACCCTTGGGTTCTAACCTGTTGCAA (site TAGTACCCTAT)” is 0.0814; for “TAGTACCCTTGGGTTCTAACCTGTTGCAA (site TAGTACCCTCT)” it is 0.104.
As for “TAGTACCCTTGGGTTCTAACCTGTTGCAA (site TAGTACCCTGT)”, the figure is 0.0816.
As to “TAGTACCCTTGGGTTCTAACCTGTTGCAA (site TAGTACCCTTT)”, the “recombinant barcode read abundance (log10)” value turned out to be 0.801.
As to “TAGTACGCTTGGGTTCTAACCTGTTGCAG (site TAGTAAGCTCA)”, the “recombinant barcode read abundance (log10)” value came to 0.12.
The figure for “TAGTACGCTTGGGTTCTAACCTGTTGCAG (site TAGTACGCTCT)” is 1.8; for “TAGTACGCTTGGGTTCTAACCTGTTGCTT (site ACACGGCCTCG)” it is 0.331.
For the sequence “TAGTACGCTTGGGTTCTAACCTGTTGCTT (site TAGTACGCTAA)”, the “recombinant barcode read abundance (log10)” value was determined as 0.848.
Consider “TAGTACTCTTGGGTTCTAACCTGTTGCTG (site TAGTACTCTAA)”, for which the “recombinant barcode read abundance (log10)” value turned out to be 0.244.
As to “TAGTACTCTTGGGTTCTAACCTGTTGCTG (site TAGTACTCTCA)”, the “recombinant barcode read abundance (log10)” value turned out to be 1.06.
In the case of “TAGTACTCTTGGGTTCTAACCTGTTGCTG (site TAGTACTCTGA)”, the “recombinant barcode read abundance (log10)” value stood at 0.053.
On to “TAGTACTCTTGGGTTCTAACCTGTTGCTG (site TAGTACTCTTA)”, for which the “recombinant barcode read abundance (log10)” value came to 0.0609.
Regarding “TAGTAGTCTTGGGTTCTAACCTGTTGCAT (site TAGTAGTCTAA)”, the “recombinant barcode read abundance (log10)” value came to 0.503.
In the case of “TAGTAGTCTTGGGTTCTAACCTGTTGCAT (site TAGTAGTCTAC)”, the “recombinant barcode read abundance (log10)” value was 1.14.
Consider “TAGTAGTCTTGGGTTCTAACCTGTTGCAT (site TAGTAGTCTAG)”, for which the “recombinant barcode read abundance (log10)” value worked out at 0.596.
For the sequence “TAGTAGTCTTGGGTTCTAACCTGTTGCAT (site TAGTAGTCTAT)”, the “recombinant barcode read abundance (log10)” value is 2.12.
The figure for “TAGTAGTCTTGGGTTCTAACCTGTTGCTT (site TAGTAGTCTAA)” is 1.55; for “TAGTAGTCTTGGGTTCTAACCTGTTGCTT (site TAGTAGTCTAC)” it is 0.635.
The figure for “TAGTAGTCTTGGGTTCTAACCTGTTGCTT (site TAGTAGTCTAG)” is 0.659; for “TAGTAGTCTTGGGTTCTAACCTGTTGCTT (site TAGTAGTCTAT)” it is 1.15; for “TAGTGATCTTGGGTTCTAACCTGTTGCCT (site TAATGATCTAG)” it is 0.
Consider “TAGTGATCTTGGGTTCTAACCTGTTGCCT (site TACTGATCTAG)”, for which the “recombinant barcode read abundance (log10)” value came to 0.072.
As for “TAGTGATCTTGGGTTCTAACCTGTTGCCT (site TAGTGATCTAG)”, the figure is 0.783; as for “TAGTGATCTTGGGTTCTAACCTGTTGCCT (site TATTGATCTAG)”, 0.0361; as for “TAGTGGCCTTGGGTTCTAACCTGTTGCTA (site CCTGACTCTAT)”, 0.
Regarding “TAGTGGCCTTGGGTTCTAACCTGTTGCTA (site TAGTGGCCTTA)”, the “recombinant barcode read abundance (log10)” value stood at 0.132.
For “TAGTGGTCTTGGGTTCTAACCTGTTGCTA (site TAGTGGTCTAT)”, the “recombinant barcode read abundance (log10)” value came to 0.403.
As to “TAGTGGTCTTGGGTTCTAACCTGTTGCTA (site TAGTGGTCTTA)”, the “recombinant barcode read abundance (log10)” value stood at 1.01.
Turning to “TAGTTTCCTTGGGTTCTAACCTGTTGCGT (site TAGTATCCTAC)”, the “recombinant barcode read abundance (log10)” value amounted to 0.3.
On to “TAGTTTCCTTGGGTTCTAACCTGTTGCGT (site TAGTCTCCTAC)”, for which the “recombinant barcode read abundance (log10)” value came to 0.0219.
As to “TAGTTTCCTTGGGTTCTAACCTGTTGCGT (site TAGTGTCCTAC)”, the “recombinant barcode read abundance (log10)” value is 0.206.
Turning to “TAGTTTCCTTGGGTTCTAACCTGTTGCGT (site TAGTTTCCTAC)”, the “recombinant barcode read abundance (log10)” value was found to be 0.875.
Consider “TAGTTTGCTTGGGTTCTAACCTGTTGCGA (site CGTCGGACTCT)”, for which the “recombinant barcode read abundance (log10)” value turned out to be 0.00829.
As to “TAGTTTGCTTGGGTTCTAACCTGTTGCGA (site TAGTTTGCTTC)”, the “recombinant barcode read abundance (log10)” value turned out to be 0.171.
Turning to “TATAATTCTTGGGTTCTAACCTGTTGCTT (site TATAATTCTAA)”, the “recombinant barcode read abundance (log10)” value was determined as 0.164.
For “TATAATTCTTGGGTTCTAACCTGTTGCTT (site TTCAATTCTAA)”, the “recombinant barcode read abundance (log10)” value was 0.146.
Consider “TATACAACTTGGGTTCTAACCTGTTGCCT (site TATAAAACTAG)”, for which the “recombinant barcode read abundance (log10)” value is 0.089.
Regarding “TATACAACTTGGGTTCTAACCTGTTGCCT (site TATACAACTAG)”, the “recombinant barcode read abundance (log10)” value came to 0.112.
The figure for “TATACAACTTGGGTTCTAACCTGTTGCCT (site TATAGAACTAG)” is 0.0301.
“TATACAACTTGGGTTCTAACCTGTTGCCT (site TATATAACTAG)”: the “recombinant barcode read abundance (log10)” value came to 0.0752.
As to “TATACAGCTTGGGTTCTAACCTGTTGCCT (site TAAACAGCTAG)”, the “recombinant barcode read abundance (log10)” value was determined as 0.156.
As for “TATACAGCTTGGGTTCTAACCTGTTGCCT (site TACACAGCTAG)”, the figure is 0.192.
On to “TATACAGCTTGGGTTCTAACCTGTTGCCT (site TAGACAGCTAG)”, for which the “recombinant barcode read abundance (log10)” value was 0.0546.
The figure for “TATACAGCTTGGGTTCTAACCTGTTGCCT (site TATACAGCTAG)” is 0.592; for “TATACTACTTGGGTTCTAACCTGTTGCCT (site TATACTACTAG)” it is 0.0122; for “TATACTACTTGGGTTCTAACCTGTTGCCT (site TATACTGCTAG)” it is 0.0258.
Take “TATACTACTTGGGTTCTAACCTGTTGCTT (site CACACTACTAA)”: the “recombinant barcode read abundance (log10)” value is 0.0534.
Turning to “TATACTACTTGGGTTCTAACCTGTTGCTT (site TATACTACTAA)”, the “recombinant barcode read abundance (log10)” value was 0.0375.
For “TATAGGACTTGGGTTCTAACCTGTTGCGT (site GATAGGACTAC)”, the “recombinant barcode read abundance (log10)” value came to 0.0102.
The figure for “TATAGGACTTGGGTTCTAACCTGTTGCGT (site TATAGGACTAC)” is 2.03; for “TATAGTACTTGGGTTCTAACCTGTTGCCT (site TATAGTACTAG)” it is 0.152; for “TATAGTACTTGGGTTCTAACCTGTTGCCT (site TATTGTCCTAG)” it is 0.0337.
The figure for “TATCCATCTTGGGTTCTAACCTGTTGCCT (site TAACCATCTAG)” is 0.0695; for “TATCCATCTTGGGTTCTAACCTGTTGCCT (site TACCCATCTAG)” it is 0.0382.
Regarding “TATCCATCTTGGGTTCTAACCTGTTGCCT (site TAGCCATCTAG)”, the “recombinant barcode read abundance (log10)” value was 0.0545.
As to “TATCCATCTTGGGTTCTAACCTGTTGCCT (site TATCCATCTAG)”, the “recombinant barcode read abundance (log10)” value was 0.618.
As for “TATGAGGCTTGGGTTCTAACCTGTTGCCT (site TATGAGGCTAG)”, the “recombinant barcode read abundance (log10)” value amounted to 0.433.
As for “TATGAGGCTTGGGTTCTAACCTGTTGCCT (site TATGCGGCTAG)”, the figure is 0.26; as for “TATGAGGCTTGGGTTCTAACCTGTTGCCT (site TATGGGGCTAG)”, 0.0447; as for “TATGAGGCTTGGGTTCTAACCTGTTGCCT (site TATGTGGCTAG)”, 0.162.
As for “TATGGAGCTTGGGTTCTAACCTGTTGCAG (site GTTGGAGCTCT)”, the “recombinant barcode read abundance (log10)” value worked out at 1.14.
As to “TATGGAGCTTGGGTTCTAACCTGTTGCAG (site TATGGAGCTCT)”, the “recombinant barcode read abundance (log10)” value is 2.34.
The figure for “TATGTAGCTTGGGTTCTAACCTGTTGCCC (site TATGTAGCTAG)” is 0.226.
The figure for “TATGTAGCTTGGGTTCTAACCTGTTGCCC (site TATGTAGCTCG)” is 0.0813; for “TATGTAGCTTGGGTTCTAACCTGTTGCCC (site TATGTAGCTGG)” it is 1.36; for “TATGTAGCTTGGGTTCTAACCTGTTGCCC (site TATGTAGCTTG)” it is 0.239.
